Experiments:
[1] = tested on: human(s); assay: Comparative effects of 1,3-DMPA and 1,4-DMPA compounds in humans (self-administration); type: in vivo
Procedure: The compounds 1,3-DMPA, racemic 1,4-DMPA, (R)-1,4-DMPA, and (S)-1,4-DMPA were administered to human(s). A non-smoking person of normal weight ingested 40 mg 1,3-DMPA as part of a dietary supplement (dietary ingredients: arginine α-ketoglutarate, creatine monohydrate, β-alanine, caffeine, 1,3-dimethylpentylamine HCL, schisandra cinensis (berry) extract (standardized for schizandrol A)); powder form), self-administered daily for at least seven days. […] To compare the effects of 1,3-DMPA to the effects of 1,4-DMPA, this individual later ingested 1,4-DMPA (racemic) for at least seven days at a dose of 60 mg per day, combined with 250 mg caffeine.
To compare the effects of (R)-1,4-DMPA, and (S)-1,4-DMPA, the individual described above ingested each enantiomer separately. Starting dose was ˜20 mg per day, which was increased to 30 mg per day if treatment was continued. Doses were combined with 250 mg caffeine as described above. […] The dose was increased to 30 mg per day; the total duration of treatment was at least three weeks. […] Ingestion of (S)-1,4-DMPA (25-30 mg per day) with caffeine produced different effects. […] The individual ceased self-administering (S)-1,4-DMPA after several days of experiencing the latter effects.

[2] = tested on: humans; details: cited from earlier work
[3] = Acute toxicity and tolerance (MTD) of a single oral dose in New Zealand white rabbits; type: in vivo, rabbit; details: both sexes, New Zealand white, in vivo; rabbit, single oral dose
Procedure: (§1) The maximum tolerated dose (MTD) of orally administered 1,3-DMPA and 1,4-DMPA was determined in New Zealand white rabbits and Wistar rats.
(§2) Determination of MTD of orally-administered 1,3-DMPA in New Zealand white rabbits: Twenty-four rabbits (twelve male, twelve female) were quarantined for at least seven days and then were randomly divided into four groups with six animals (3 male and 3 female) in each group. […] Animals were observed daily for fourteen days following administration. Each animal's body weight, food intake, mortality, and natural orifices were monitored. Clinical observations included skin condition, gait, movement, neurological disorders, eye condition, feces, convulsions, tremors, activity rate, restlessness, grooming, sleep, aggressiveness, salivation, diarrhea, respiration, appetite, thirst and urine conditions. Other observations included fur condition, mucous membranes, presence or absence of secretions and excretions and autonomic activity, lacrimation, piloerection, pupil size, posture, arched back, distended abdomen, fur, mucous membrane, presence or absence of secretions, tail elevation, motor activity, urination and defecation, and response to handling as well as the presence of clonic or tonic movements, repetitive circling, bizarre behavior, self-mutilation and walking backwards. At the conclusion of the fourteen day monitoring period, gross pathological examination was carried out on all animals. Heart, lung, liver, kidneys, spleen, stomach, large intestine, small intestine, brain and skin were examined for any macroscopic lesions.
(§3) Determination of MTD of orally-administered 1,4-DMPA in New Zealand white rabbits: Thirty rabbits (fifteen male, fifteen female) were quarantined for at least seven days and then were randomly divided into five groups with six animals (3 male and 3 female) in each group. […] Animals were observed daily for fourteen days following administration. Each animal's body weight, food intake, mortality, and natural orifices were monitored. As above, clinical observations included observation of natural orifices for any abnormal secretions and monitoring for the presence or absence of secretions and excretions, monitoring of mucous membranes, fur and skin condition, mortality, gait, posture, arched back, distended abdomen, movement and motor activity, neurological disorders, eye condition and pupil size, feces, convulsions, tremors, tail elevation, activity rate, restlessness, grooming, sleep, aggressiveness, salivation, diarrhea, respiration, appetite, thirst and urine conditions, autonomic activity, lacrimation, piloerection, response to handling, as well as the presence of clonic or tonic movements, repetitive circling, bizarre behavior, self-mutilation and walking backwards. At the conclusion of the fourteen day monitoring period, gross pathological examination was carried out on all animals. Heart, lung, liver, kidneys, spleen, stomach, large intestine, small intestine, brain and skin were examined for any macroscopic lesions.

[4] = tested on: New Zealand white rabbits; assay: as above; type: in vivo, rabbit
Procedure: as §1, §2, §3

[5] = Acute toxicity and tolerance (MTD) of a single oral dose in Wistar rats; type: in vivo, rat; details: both sexes, Wistar, in vivo; rat, single oral dose
Procedure: as §1
(§4) Determination of MTD of orally-administered 1,3-DMPA in Wistar rats: The same general methods and procedures were followed as described above. This study involved forty animals randomly divided into four groups of ten animals (five male, five female) in each group. […] The MTD of a single oral dose of 1,3-DMPA was determined to be between 125 mg/kg and 250 mg/kg.
as §4, with “1,4-DMPA” for “1,3-DMPA”, “group. The groups were treated as follows: Group I (vehicle control—water), Group II (75 mg/kg), Group III (150 mg/kg), and Group IV (300 mg/kg). […] Gross pathological changes were not observed in the treated groups during necropsy.” for “group.”, “150” for “125”, “300 mg/kg in Wistar rats.” for “250 mg/kg.”

[6] = tested on: Wistar rats; assay: as above; type: in vivo, rat
Procedure: as §1, §4
as §4, with “1,4-DMPA” for “1,3-DMPA”, “group. The groups were treated as follows: Group I (vehicle control—water), Group II (75 mg/kg), Group III (150 mg/kg), and Group IV (300 mg/kg). […] Gross pathological changes were not observed in the treated groups during necropsy.” for “group.”, “150” for “125”, “300 mg/kg in Wistar rats.” for “250 mg/kg.”

[7] = tested on: cats and dogs; details: early animal studies; cited from earlier work
[8] = male, 20 then 30 mg per day with 250 mg caffeine, at least three weeks
[9] = male, starting dose 20 mg per day with 250 mg caffeine
[10] = male, 40 mg daily in a dietary supplement containing caffeine, at least seven days
[11] = male, 60 mg per day with 250 mg caffeine, at least seven days
[12] = male, 25-30 mg per day with caffeine, several days

CC(C)CC[C@@H](C)N [(R)-1,4-DMPA, (R)-1,4-dimethylpentylamine]
CNS stimulation [1, 8]: CNS stimulation, including feelings of alertness, focus, and reduced fatigue | appetite [1, 8]: decreased appetite | heart rate, jitteriness, nervousness, anxiety [1, 8]: not associated with a noticeable increase in heart rate, jitteriness, nervousness, or anxiety | mood [1, 8]: improved mood | physical performance [1, 8]: improved physical performance | CNS stimulant effect [1, 9]: produced CNS stimulant effect | jitteriness or pressor effect [1, 9]: little or no jitteriness or pressor effect

CCC(C)CC(C)N (stereo not shown) [1,3-DMPA, 1,3-dimethylpentylamine, reference compound]
vasopressor effects ([2]; acute oral administration in humans): vasopressor effects similar to the effects of caffeine | glycerol and free fatty acid concentration (markers of lipolysis) ([2]; humans, following exercise): increased levels of these markers of lipolysis | blood pressure ([2]; humans): increase blood pressure to a modest degree | heart rate and circulating catecholamines (norepinephrine and epinephrine) ([2]; humans): no effect on heart rate or on circulating catecholamines | norepinephrine levels ([2]; humans): no effect on norepinephrine levels | CNS stimulation [1, 10]: CNS stimulation, including feelings of restlessness and jitteriness | appetite [1, 10]: decreased appetite | heart rate [1, 10]: increased heart rate | mood [1, 10]: improved mood | physical performance during exercise and strength training [1, 10]: improved physical performance | LD50 at 14 days [3]: 324 mg/kg | MTD at 14 days [3]: 150 to 300 mg/kg | gross pathological observations ([4]; rabbit, 50 mg/kg or 150 mg/kg oral): no changes | behavioral observations ([4]; rabbit, 50 mg/kg oral): did not exhibit any behavioral aberrations | clinical signs ([4]; rabbit, 150 mg/kg oral, a few animals, hours 1-6 after administration): tremors | clinical signs ([4]; rabbit, 300 mg/kg oral): nasal discharge, salivation, tremors, convulsions and tachycardia | gross necropsy of animals that died ([4]; rabbit, 300 mg/kg oral): reddish discoloration in the lungs, multiple watery cyst on the right median lobe of the liver and focal white patches | mortality ([4]; rabbit, 300 mg/kg oral, six animals per group, within four hours after dosing): four animals in this group died | mean body weight ([4]; rabbit, 50, 150, 300 mg/kg oral, 14-day study period): consistent increase | mean food intake ([4]; rabbit, 50, 150, 300 mg/kg oral, study period): normal | food intake ([4]; rabbit, treatment groups 50-300 mg/kg, first observations following treatment): initial decrease in food intake | LD50 at 14 days [5]: 482 mg/kg | MTD at 14 days [5]: 125 to 250 mg/kg | additional clinical signs ([6]; rat, 250 mg/kg oral): tremors | food intake ([6]; rat, 250 mg/kg oral): decreased food intake on Day 3 | necropsy analysis ([6]; rat, 250 mg/kg oral, preterminal mortality): hyperemia in the stomach glandular mucosa; congestion of lungs, liver and adrenals; the presence of blood clots in the cranial cavity; and ballooning of the small intestine with reddish yellow fluid | mortality ([6]; rat, 250 mg/kg oral, ten animals per group, within 26 hours of dosing): One preterminal mortality | mean body weight ([6]; rat, 50, 125, 250 mg/kg oral, all treatment groups): consistent increase | mean food intake ([6]; rat, 50 and 125 mg/kg oral): normal | mortality ([6]; rat, 50 and 125 mg/kg oral (lower dose groups)): no mortalities | clinical signs ([6]; rat, all treatment groups 50, 125, 250 mg/kg oral): piloerection, tail elevation, nasal discharge and hyperactivity | vasopressor activity [7]: exhibit vasopressor or vasoconstriction activity

CC(C)CCC(C)N (racemic) [1,4-DMPA, 1,4-dimethylpentylamine]
appetite [1, 11]: decreased appetite | effect on heart rate compared with prior 1,3-DMPA [1, 11]: reduced effect on heart rate | jitteriness or anxiousness compared with prior 1,3-DMPA [1, 11]: noticeably reduced feelings of jitteriness or anxiousness | level of CNS stimulation compared with 1,3-DMPA [1, 11]: about the same level of CNS stimulation | mood and vigor [1, 11]: improved mood and vigor | nature of the stimulatory effect [1, 11]: increased focus and alertness and reduced fatigue | physical performance [1, 11]: improved physical performance | fat mass ([1]; reports of individuals ingesting the compound): reduction in fat mass | MTD at 14 days [3]: 250 to 350 mg/kg | clinical signs ([4]; rabbit, 250 mg/kg and 350 mg/kg oral, all animals): tremors and tachycardia | body weight ([4]; rabbit, 350 mg/kg oral (Group V), study period): variation in body weight | gross pathology of the animal that died ([4]; rabbit, 350 mg/kg oral, died after 36 hours): dark reddish discoloration of the lung suggesting congestion, slight reddish discoloration of the trachea, and mild petechial hemorrhages in the liver | mortality ([4]; rabbit, 350 mg/kg oral, six animals per group, within 36 hours): one mortality | mortality ([4]; rabbit, 50, 125, 250 mg/kg oral): No mortalities | mean body weight ([4]; rabbit, 50, 125, 250 mg/kg oral (all groups except Group V), 14 days, vs vehicle control): consistent increase | mean food intake ([4]; rabbit, all treatment groups 50-350 mg/kg, first 48 hours post treatment, vs control): reduced | gross pathological changes ([4]; rabbit, treated groups 50-350 mg/kg, except the animal that died): No gross pathological changes were observed | toxicity and tolerance compared with 1,3-DMPA ([4]; single-dose rat and rabbit studies): less toxic and better tolerated than 1,3-DMPA | LD50 at 14 days [5]: 465 mg/kg | MTD at 14 days [5]: 150 to 300 mg/kg | additional clinical signs ([6]; rat, 150 mg/kg and 300 mg/kg oral): Tremors and convulsions | examination of the animals that died ([6]; rat, 300 mg/kg oral, died 4.5 hours post dosing): right median lobe consolidation and red foci on lungs, mild reddish discoloration of adrenals and spleen, mild enlargement of the spleen and glandular mucosa of the stomach showing hyperemia | mortality ([6]; rat, 300 mg/kg oral, ten animals per group, within 4.5 hours): Four mortalities | mean body weight ([6]; rat, 75, 150, 300 mg/kg oral, study period, vs control): consistently increased | mortality ([6]; rat, 75 and 150 mg/kg oral): No mortalities | clinical signs ([6]; rat, all treated animals 75, 150, 300 mg/kg oral): piloerection, tail elevation, nasal discharge, tachycardia and hyperactivity | gross pathological changes at necropsy ([6]; rat, treated groups 75-300 mg/kg oral): not observed | feed consumption ([6]; rat, treatment groups 75, 150, 300 mg/kg oral, first 48 hours post administration): consume less feed | vasopressor activity [7]: possesses vasopressor activity

CC(C)CC[C@H](C)N [(S)-1,4-DMPA, (S)-1,4-dimethylpentylamine]
alertness and focus in comparison to (R)-1,4-DMPA [1, 12]: lessened alertness and focus | heart rate and restlessness in comparison to (R)-1,4-DMPA [1, 12]: increased heart rate and restlessness

— US20140080847A1, “Compositions and Methods for Affecting Energy Balance, Body Composition, Fitness, and Well-Being” (OEJM Products Holdings, LLC, priority 2012, published 2014)
